We go through 17 compounds from ChEMBL document CHEMBL1138146, “Analysis of anti-PDE3 activity of 2-morpholinochromone derivatives reveals multiple mechanisms of anti-platelet activity” (Bioorg Med Chem Lett, 2006).

As usually defined, the inhibition is the relative decrease from the control value, in per cent.

Assay [1] deals with cGMP-inhibited 3',5'-cyclic phosphodiesterase 3A (Homo sapiens) (UniProt Q14432). The experiment in a line: Inhibition of PDE3A at 50 uM.
The target of assay [2] is Phosphodiesterase 3 (Homo sapiens) (UniProt Q14432+Q13370). In words: Inhibition of PDE3 at 6.25 uM. It counts as protein assay.
The species named for another assay is Homo sapiens. In words: Inhibition of PAR4AP induced platelet aggregation at 25 uM. It counts as functional.

Calls of active or inactive are those of the source. The rule behind the calls is not given here.

Chain of cGMP-inhibited 3',5'-cyclic phosphodiesterase 3A (Homo sapiens) (Q14432 whole entry): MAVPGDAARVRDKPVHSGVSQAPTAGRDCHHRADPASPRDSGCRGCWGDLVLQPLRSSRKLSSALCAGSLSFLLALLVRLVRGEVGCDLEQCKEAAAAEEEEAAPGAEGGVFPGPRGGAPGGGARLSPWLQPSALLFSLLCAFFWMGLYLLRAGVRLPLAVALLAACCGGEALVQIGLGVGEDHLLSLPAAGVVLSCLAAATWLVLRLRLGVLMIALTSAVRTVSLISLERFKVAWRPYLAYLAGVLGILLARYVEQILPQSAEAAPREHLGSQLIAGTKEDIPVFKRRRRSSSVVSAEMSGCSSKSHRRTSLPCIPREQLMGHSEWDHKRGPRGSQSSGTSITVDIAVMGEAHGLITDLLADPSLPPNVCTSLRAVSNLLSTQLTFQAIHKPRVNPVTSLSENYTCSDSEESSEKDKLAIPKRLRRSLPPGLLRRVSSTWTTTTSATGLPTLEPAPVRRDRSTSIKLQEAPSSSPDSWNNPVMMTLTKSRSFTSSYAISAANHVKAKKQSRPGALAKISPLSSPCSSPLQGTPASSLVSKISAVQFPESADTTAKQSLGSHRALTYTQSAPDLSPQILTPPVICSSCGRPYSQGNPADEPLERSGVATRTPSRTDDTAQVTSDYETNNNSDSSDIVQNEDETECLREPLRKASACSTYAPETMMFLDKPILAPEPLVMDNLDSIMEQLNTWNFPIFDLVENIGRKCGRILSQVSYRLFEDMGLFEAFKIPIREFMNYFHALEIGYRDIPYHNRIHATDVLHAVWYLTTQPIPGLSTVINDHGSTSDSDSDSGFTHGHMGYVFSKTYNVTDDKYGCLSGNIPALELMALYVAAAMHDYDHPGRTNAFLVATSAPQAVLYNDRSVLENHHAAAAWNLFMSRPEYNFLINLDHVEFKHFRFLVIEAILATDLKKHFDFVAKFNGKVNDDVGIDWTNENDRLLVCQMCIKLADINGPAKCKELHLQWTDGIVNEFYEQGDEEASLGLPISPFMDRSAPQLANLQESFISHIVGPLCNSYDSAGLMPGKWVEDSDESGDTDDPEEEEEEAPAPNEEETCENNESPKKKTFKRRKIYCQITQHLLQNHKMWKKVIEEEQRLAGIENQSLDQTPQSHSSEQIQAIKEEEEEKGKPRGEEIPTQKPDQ

As for `O=c1cc(N2CCOCC2)oc2c(OCc3cccnc3)cccc12`, the inhibition in assay [1] turned out to be 5%.
The same measure, in the same setting: as for `O=c1cc(N2CCOCC2)oc2cc(OCc3ccccc3)ccc12`, the figure is 49%; as for `O=c1cc(N2CCOCC2)oc2c(CCc3ccccc3)cccc12`, 28%.
On the same count and under the same terms, as for `Cc1c(OCCN2CCN(C)CC2)ccc2c(=O)cc(N3CCOCC3)oc12`, the figure is -10%.
Regarding `Cc1c(OCc2cccnc2)ccc2c(=O)cc(N3CCOCC3)oc12`, the inhibition in assay [1] worked out at 68%; in assay [2] it was 46%.
Consider `O=c1cc(N2CCOCC2)oc2cc(-c3ccccc3)ccc12`, for which, in assay [1], the inhibition came to 50%.
On the same count and under the same terms, as for `Cc1c(C#Cc2ccccc2)ccc2c(=O)cc(N3CCOCC3)oc12`, the figure is 44%; as for `O=c1cc(N2CCOCC2)oc2c(-c3ccccc3)cccc12`, 35%; as for `O=c1cc(N2CCOCC2)oc2cc(C#Cc3ccccc3)ccc12`, 70%.
Same read-out and setting: as for `O=c1cc(N2CCOCC2)oc2cc(Oc3ccccc3)ccc12`, the figure is 43%.
Regarding `Cc1c(OCc2ccccc2)ccc2c(=O)cc(N3CCOCC3)oc12`, the result in the assay filed under Homo sapiens was Active. In addition, the inhibition in assay [1] was 86%.
On to `Cc1c(-c2ccccc2)ccc2c(=O)cc(N3CCOCC3)oc12`, for which the inhibition in assay [1] came to 83%.
Same read-out and setting: under `COc1cc(-c2ccc(Cl)cc2)c2oc(N3CCOCC3)cc(=O)c2c1` stands 63%.
Same read-out and setting: under `O=c1cc(N2CCOCC2)oc2cc(OCc3cccnc3)ccc12` stands 19%.
The same measure, in the same setting: under `O=c1cc(N2CCOCC2)oc2c(C#Cc3ccccc3)cccc12` stands 60%; under `Cc1c(Oc2ccccc2)ccc2c(=O)cc(N3CCOCC3)oc12`, 78%; under `O=c1cc(N2CCOCC2)oc2c(OCc3ccccc3)cccc12`, -7%.
